Experiment [1] relates to Myzus persicae (URR-O type), sensitive strains. In words: Foliar spray test on larvae of Myzus persicae, sensitive strain. The conditions noted are these: for LC50: read-out: LC₅₀ (ppm) Sensitive Strain. The experiment is classed as in vivo. As to the method: (§1) A solution of the compound is diluted with distilled water containing Tween 20® at a concentration of 100 ppm to prepare a predetermined concentration of the test solution. Malathion emulsion and pirimicarb wettable powder are diluted with distilled water to prepare a predetermined concentration of the test solution, respectively.
(§2) Myzus persicae (URR-O type) distributed from Chiba University, which were reared for succesive generations, were used as a group of sensitive strains. Myzus persicae resistant to malathion and pirimicarb which were collected from Aburahi Laboratory of Shionogi & Co., Ltd. and reared for succesive generations while selecting those resistant to these drugs were used as a group of resistant strains.
(§3) A polyethylene cup (diameter 6 cm, depth 4 cm) was filled with 0.3 % agar gel and a piece of Chinese cabbage leaf (3x3 cm) was placed on the gel. One apterous adult of Myzus persicae was put on the leaf and allowed to keep at 25 °C for 24 hours to make larviposition. After removal of the adult, 2 ml of the test solution was applied to the foliage under a rotary sprayer; and larvae of Myzus persicae was allowed to keep at 25 °C for 48 hours. Then the mortality of the larvae was determined and the value of LC₅₀ was calculated by the method of Billis. [Bliis, Ann. Appl. Biol.,22, 134;307 (1935)].

The subject of experiment [2] is Myzus persicae resistant to malathion and pirimicarb. In words: Foliar spray test on larvae of Myzus persicae, strain resistant to malathion and pirimicarb. Conditions: for LC50: read-out: LC₅₀ (ppm) Resistant Strain. The experiment is classed as in vivo. As to the method:
as §1, §2, §3

[3] abbreviates: 7.8 ppm, larvae, 25 °C, 48 hours after spraying.
[4] abbreviates: 15.6 ppm, larvae, 25 °C, 48 hours after spraying.
Where [5] appears, read: 31.3 ppm, larvae, 25 °C, 48 hours after spraying.
Setting [6] is: 62.5 ppm, larvae, 25 °C, 48 hours after spraying.
[7] abbreviates: 125 ppm, larvae, 25 °C, 48 hours after spraying.
Setting [8] is: 250 ppm, larvae, 25 °C, 48 hours after spraying.
The mark [9] stands for this setting: larvae, 48 hours, ( ) means 95 % confidence limit.

This note sets out measurements from patent publication EP0367033A1, “S-Difluoromethylhomocysteines, preparation process, and insecticidal compositions” (SHIONOGI SEIYAKU KABUSHIKI KAISHA, priority 1988, dated 1990).

≈ marks a conversion by molar mass, not a printed value. Where two headings read alike, the source gives them in different places. A value given as a limit tells only on which side of the number the result lay.

For orientation: mortality means the share of the test organisms that died. Low values mean more survivors, high ones fewer survivors. Regarding `N[C@@H](CCSC(F)F)C(=O)O` [Compound I ^a, L-difluoromethylhomocysteine], the values for the mortality at 7.8 ppm in experiment [1] (setting [3]) and in experiment [2] (setting [3]) were 0% and 5%, respectively. Further, the results for the mortality at 15.6 ppm in experiment [1] (setting [4]) and in experiment [2] (setting [4]) were 8.7% and 0%, respectively. For the same compound, the mortality at 31.3 ppm in experiment [1] (setting [5]) was 4.8%; in experiment [2] (setting [5]) it was 54.2%. Further, the mortality at 62.5 ppm in experiment [1] (setting [6]) came to 57.1%; in experiment [2] (setting [6]), 100%. Moreover, the mortality at 125 ppm in experiment [1] (setting [7]) and in experiment [2] (setting [7]) was 100% each time. Besides, the mortality at 250 ppm in experiment [1] (setting [8]) and in experiment [2] (setting [8]) was 100% in each case. In addition, the values for the LC50 in experiment [1] (setting [9]) and in experiment [2] (setting [9]) were 52.9 µg/mL (≈ 286 µM) and 27.1 µg/mL (≈ 146 µM), respectively.
Consider `CCOC(=O)CC(SP(=S)(OC)OC)C(=O)OCC` (stereo not drawn) [malathion, reference compound], for which the LC50 in experiment [1] (48 h) is 136 µg/mL (≈ 412 µM); in experiment [2] (48 h), over 2000 µg/mL.
For `Cc1nc(N(C)C)nc(OC(=O)N(C)C)c1C` [pirimicarb, reference compound] the same measures were 8.2 µg/mL (≈ 34.4 µM) and over 1920 µg/mL.
